Experimental data from PMC11417994, “Cyclohexanediamine Triazole (CHDT) Functionalization Enables Labeling of Target Molecules with Al^18F/^68Ga/^111In” (Bioconjugate Chemistry, 2024).

Target: T1, PSMA (Homo sapiens, UniProt Q04609)
T1 construct: Detection of endogenous PSMA expression in LNCaP and PC3 cells relative to β-actin expression by Western; host or cells: LNCaP human prostate carcinoma cells (monolayer, spheroids or Potter-Elvehjem homogenates)
Test: Saturation binding using LNCaP cell homogenates
Procedure: The binding affinity of the nonlabeled CHDT-PSMA-1/2/3, PSMA-1007, PSMA-617, and KuE was assessed in competition binding assays using LNCaP cell homogenates (∼1 × 10^6 cells/mL using Potter-Elvehjem) and the radioligand [^177Lu]Lu-PSMA-617 (n = 5 for CHDT-PSMA-1; n = 4 for CHDT-PSMA-2/3; n = 2 for PSMA-1007; n = 8 for PSMA-617; n = 6 for KuE). […] The assays were performed in a final volume of 200 μL. The incubation was stopped by washing the homogenate with cold PBS four times using a filter (Whatman GF/C, 90 min presoaked in 0.3% polyethylenimine) in a cell harvester (Brandel, USA). The radioactivity bound to the filter was measured in a gamma counter. Filter binding was determined for adjacent samples without cell homogenate. […] The Kd value of [^177Lu]Lu-PSMA-617 was determined in saturation binding assays using LNCaP cell homogenates to be 15.2 (±2.1) nM. […]
Dissociations constants (Kd and Kd,int), as well as maximal binding capacities (Bmax and Bmax,int), were derived from specific binding data by nonlinear regression according to the model of “One site-specific binding” as implemented in GraphPad Prism 10. Protein content was determined using the bicinchoninic acid protein assay kit (Pierce, Thermo Scientific) to calculate the binding capacities in pmol/mg and for the time-depending internalization the internalized percent of administrated dose per μg protein (% AD/μg protein).

T1 sequence (Q04609 whole entry): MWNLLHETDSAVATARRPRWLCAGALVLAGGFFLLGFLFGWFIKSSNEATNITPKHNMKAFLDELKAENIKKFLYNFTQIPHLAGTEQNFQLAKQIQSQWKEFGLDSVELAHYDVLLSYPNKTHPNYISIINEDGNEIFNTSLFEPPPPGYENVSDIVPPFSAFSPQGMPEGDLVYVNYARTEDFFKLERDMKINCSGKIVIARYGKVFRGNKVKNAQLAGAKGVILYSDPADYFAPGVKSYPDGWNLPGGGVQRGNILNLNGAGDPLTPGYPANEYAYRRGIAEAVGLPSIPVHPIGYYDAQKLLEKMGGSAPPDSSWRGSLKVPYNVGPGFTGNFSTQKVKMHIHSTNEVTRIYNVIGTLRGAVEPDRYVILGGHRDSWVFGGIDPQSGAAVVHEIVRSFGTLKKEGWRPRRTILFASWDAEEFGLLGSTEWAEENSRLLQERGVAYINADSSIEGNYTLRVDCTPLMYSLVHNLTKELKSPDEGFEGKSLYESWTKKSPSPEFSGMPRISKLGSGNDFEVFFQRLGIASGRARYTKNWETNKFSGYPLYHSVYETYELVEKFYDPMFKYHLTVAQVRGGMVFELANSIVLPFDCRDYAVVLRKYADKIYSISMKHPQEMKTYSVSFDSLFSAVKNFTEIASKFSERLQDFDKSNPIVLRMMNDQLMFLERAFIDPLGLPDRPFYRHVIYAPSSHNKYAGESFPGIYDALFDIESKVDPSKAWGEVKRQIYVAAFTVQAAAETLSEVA

Kd: 15.2 nM
Substance: [^177Lu]Lu-PSMA-617
